Here are results for 39 compounds from patent publication US9108921B2, “Therapeutic compounds and compositions” (AGIOS PHARMACEUTICALS, INC, priority 2014, dated 2015).

Type in all cases: biochemical
One assay deals with PKR R510Q (Homo sapiens, UniProt P30613, R510Q). In words: PKR Mutant Assay, AC50 against PKR R510Q. Particulars: mutant PKR R510Q enzyme. In a few lines: (§1)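 LDH-coupled NADH depletion read as A340 change at room temperature after ADP (0.22-1.65 mM) start. Compounds, tested from 100 μM final in 3-fold steps over 11 points with 1% DMSO, sat 60 min with enzyme (80-400 ng/well), PEP 0.1-0.5 mM and NADH 180 uM in Tris pH 7.5/KCl/MgCl2/DTT/BSA buffer.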
PKR R510Q, sequence (P30613 whole entry R510Q): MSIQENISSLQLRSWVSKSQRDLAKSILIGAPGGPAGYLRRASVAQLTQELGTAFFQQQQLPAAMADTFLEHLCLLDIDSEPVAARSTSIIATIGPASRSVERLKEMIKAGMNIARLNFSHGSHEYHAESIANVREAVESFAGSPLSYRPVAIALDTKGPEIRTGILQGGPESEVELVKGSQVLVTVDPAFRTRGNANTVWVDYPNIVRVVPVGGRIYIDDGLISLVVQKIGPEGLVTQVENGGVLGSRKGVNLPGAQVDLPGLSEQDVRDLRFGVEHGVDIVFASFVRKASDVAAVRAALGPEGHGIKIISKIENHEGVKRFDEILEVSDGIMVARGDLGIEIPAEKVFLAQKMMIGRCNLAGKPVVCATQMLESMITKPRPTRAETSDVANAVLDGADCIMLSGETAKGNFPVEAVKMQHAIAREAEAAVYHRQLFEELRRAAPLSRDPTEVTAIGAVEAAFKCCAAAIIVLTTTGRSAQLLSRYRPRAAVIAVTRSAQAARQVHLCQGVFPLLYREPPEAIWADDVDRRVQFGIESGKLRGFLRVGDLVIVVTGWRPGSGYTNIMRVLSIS

The target of a further assay is PKR R532W (Homo sapiens, UniProt P30613, R532W). Description: PKR Mutant Assay, AC50 against PKR R532W. To be noted: mutant PKR R532W enzyme. In a few lines:
as §1

Another assay addresses PKR WT (Homo sapiens, UniProt P30613). Description: PKR WT enzymatic AC50 assay. To be noted: wild type PKR. The method in brief: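 PK-LDH coupled assay, RT. Enzyme + cpd + PEP/NADH/LDH, 60 min pre-incubation, no ADP. ADP 0.22-1.65 mM to initiate; A340 kinetic read. Cpd 11 pts, 3-fold, 100 μM top.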

Bounds are passed on as bounds.

PKR WT, sequence (P30613 whole entry): as the sequence (P30613 whole entry R510Q) above, with Q510R counted along it
PKR R532W, sequence (P30613 whole entry R532W): as the sequence (P30613 whole entry R510Q) above, with Q510R, R532W counted along it

Consider `O=C(c1ccc(NS(=O)(=O)c2cccc3cccnc23)cc1)N1CCC(O)(c2cccc(F)n2)CC1` [Compound 286], for which the AC50 at PKR R510Q fell in the range of 1010 to 10000 nM; on PKR R532W, 101 to 1000 nM; on PKR WT it was 101 to 1000 nM.
On to `CC(C)CC1(O)CCN(C(=O)c2ccc(NS(=O)(=O)c3ccc(O)c4nccnc34)cc2)CC1` [Compound 289], for which the AC50 at PKR R510Q lay in the range of 1010 to 10000 nM; on PKR R532W, 101 to 1000 nM; on PKR WT, 101 to 1000 nM.
Consider `O=C(c1cc(F)c(NS(=O)(=O)c2cccc3cccnc23)cc1F)N1CCC(O)(c2ccccc2)CC1` [Compound 290], for which the figures for the AC50 at PKR R510Q, on PKR R532W and on PKR WT were 1010 to 10000 nM, 101 to 1000 nM and 101 to 1000 nM, respectively.
`CC(C)(O)CCC1(O)CCN(C(=O)c2ccc(NS(=O)(=O)c3cccc4cccnc34)cc2)CC1` [Compound 292]: the AC50 fell in the range of 1010 to 10000 nM at PKR R510Q, 1010 to 10000 nM on PKR R532W and 101 to 1000 nM at PKR WT.
Regarding `Cc1nc2c(S(=O)(=O)Nc3ccc(C(=O)N4CCC(O)(c5ccccc5Cl)CC4)cc3)cccc2s1` [Compound 293], the values for the AC50 at PKR R510Q, on PKR R532W and on PKR WT were 1010 to 10000 nM, 101 to 1000 nM and 101 to 1000 nM, respectively.
`O=C(c1ccc(NS(=O)(=O)c2cccc3nsnc23)cc1)N1CCC(O)(c2ccccc2)CC1` [Compound 294]: the AC50 at PKR R510Q was above 10000 nM; at PKR R532W, 1010 to 10000 nM; at PKR WT, 1010 to 10000 nM.
Take `CC1(O)CCN(C(=O)c2ccc(NS(=O)(=O)c3cccc4cccnc34)cc2)CC1` [Compound 296]: the figures for the AC50 at PKR R510Q, at PKR R532W and at PKR WT were above 10000 nM, 1010 to 10000 nM and 1010 to 10000 nM, respectively.
Regarding `O=C(c1ccc(NS(=O)(=O)c2ccccc2C(F)(F)F)cc1)N1CCC(O)(Cc2ccccc2)CC1` [Compound 297], the AC50 at PKR R510Q, on PKR R532W and on PKR WT was 1010 to 10000 nM throughout.
As for `O=C(c1ccc(NS(=O)(=O)c2cccc3cccnc23)cn1)N1CCC(O)(c2ccccc2)CC1` [Compound 298], the AC50 was above 10000 nM on PKR R510Q, 1010 to 10000 nM at PKR R532W and 1010 to 10000 nM on PKR WT.
`O=C(c1ccc(NS(=O)(=O)c2cccc3ncccc23)cc1)N1CCC(O)(c2ccccc2)CC1` [Compound 300]: the AC50 on PKR R510Q is above 10000 nM; at PKR R532W it was 1010 to 10000 nM; on PKR WT, 1010 to 10000 nM.
As to `O=C(c1ccc(NS(=O)(=O)c2cccc3cccnc23)c(F)c1F)N1CCC(O)(c2ccccc2)CC1` [Compound 302], the AC50 at PKR R510Q is above 10000 nM; on PKR R532W, 1010 to 10000 nM; on PKR WT it was 1010 to 10000 nM.
`O=C(c1ccc(NS(=O)(=O)c2c(F)ccc3ncsc23)cc1)N1CCC(O)(c2ccccc2Cl)CC1` [Compound 303]: the AC50 on PKR R510Q was above 10000 nM; at PKR R532W, 1010 to 10000 nM; on PKR WT, 1010 to 10000 nM.
Turning to `COc1nc(C(=O)N2CCC(O)(c3ccccc3)CC2)ccc1NS(=O)(=O)c1cccc2cccnc12` [Compound 304], the AC50 was above 10000 nM on PKR R510Q, 1010 to 10000 nM at PKR R532W and 1010 to 10000 nM on PKR WT.
With `O=C(c1ccc(NS(=O)(=O)c2cccc3cccnc23)nc1)N1CCC(O)(c2ccccc2)CC1` [Compound 306], the AC50 was above 10000 nM on PKR R510Q, 1010 to 10000 nM on PKR R532W and 1010 to 10000 nM at PKR WT.
In the case of `O=C(c1ccc(NS(=O)(=O)c2cccc(OC(F)(F)F)c2)cc1)N1CCC(O)(Cc2ccccc2)CC1` [Compound 307], the figures for the AC50 at PKR R510Q, at PKR R532W and on PKR WT were above 10000 nM, 1010 to 10000 nM and 1010 to 10000 nM, respectively.
With `O=C(c1ccc(NS(=O)(=O)c2cccc3c2OC(F)(F)O3)cc1)N1CCC(O)(c2ccccc2Cl)CC1` [Compound 308], the AC50 on PKR R510Q was above 10000 nM; on PKR R532W it was 1010 to 10000 nM; at PKR WT, 1010 to 10000 nM.
With `CC(C)CC1(O)CCN(C(=O)c2ccc(NS(=O)(=O)c3c(F)ccc4ncsc34)cc2)CC1` [Compound 309], the figures for the AC50 on PKR R510Q, on PKR R532W and at PKR WT were above 10000 nM, 1010 to 10000 nM and 1010 to 10000 nM, respectively.
Take `O=C(c1ccc(N[S+]([O-])c2cccc3cccnc23)cc1)N1CCC(O)(c2ccccc2Cl)CC1` (stereo not drawn) [Compound 311]: the results for the AC50 at PKR R510Q, at PKR R532W and at PKR WT were above 10000 nM, 1010 to 10000 nM and 1010 to 10000 nM, respectively.
As for `CC(C)CC1(O)CCN(C(=O)c2ccc(NS(=O)(=O)c3cccn4ccnc34)cc2)CC1` [Compound 312], the AC50 on PKR R510Q is above 10000 nM; at PKR R532W, 1010 to 10000 nM; at PKR WT it was 1010 to 10000 nM.
`O=C(c1ccc(NS(=O)(=O)c2cccc3ccnnc23)cc1)N1CCC(O)(c2ccccc2Cl)CC1` [Compound 313]: the AC50 at PKR R510Q is above 10000 nM; at PKR R532W, above 10000 nM; at PKR WT, 1010 to 10000 nM.
On to `CC(C)CC1(O)CCN(C(=O)c2ccc(NS(=O)(=O)c3ccnc4scnc34)cc2)CC1` [Compound 314], for which the figures for the AC50 at PKR R510Q, at PKR R532W and on PKR WT were above 10000 nM, above 10000 nM and 1010 to 10000 nM, respectively.
`O=C(c1ccc(NS(=O)(=O)c2c[nH]c3cccnc23)cc1)N1CCC(O)(c2ccccc2Cl)CC1` [Compound 316]: the AC50 at PKR R510Q, on PKR R532W and at PKR WT was above 10000 nM each time.
Take `O=C(c1ccc(NS(=O)(=O)n2ccc3cccnc32)cc1)N1CCC(O)(c2ccccc2Cl)CC1` [Compound 318]: the AC50 at PKR R510Q, at PKR R532W and at PKR WT was above 10000 nM throughout.
Regarding `O=C(c1ccc(NS(=O)(=O)c2cccc3cccnc23)cc1)N1CCC(C(=O)O)(c2ccccc2)CC1` [Compound 320], the AC50 at PKR R510Q, on PKR R532W and on PKR WT was above 10000 nM throughout.
For the compound `O=C(c1ccc(NS(=O)(=O)Cc2ccccn2)cc1)N1CCC(O)(c2ccccc2Cl)CC1` [Compound 322], the AC50 on PKR R510Q, on PKR R532W and on PKR WT was above 10000 nM in each case.
Take `CC(C)CC1(O)CCN(C(=O)c2ccc(NS(=O)(=O)Cc3ccccn3)cc2)CC1` [Compound 324]: the AC50 at PKR R510Q, at PKR R532W and at PKR WT was above 10000 nM each time.
`O=C(c1ccc(NS(=O)(=O)c2ccc(F)c3scnc23)cc1)N1CCC(O)(c2ccccc2Cl)CC1` [Compound 368]: the AC50 lay in the range of 1010 to 10000 nM at PKR R510Q, 101 to 1000 nM at PKR R532W and 101 to 1000 nM at PKR WT.
In the case of `CC(C)CC1(O)CCN(C(=O)c2ccc(NS(=O)(=O)c3ccc(F)c4scnc34)cc2)CC1` [Compound 372], the AC50 on PKR R510Q, at PKR R532W and on PKR WT was 101 to 1000 nM in each case.
Turning to `CC(C)CC1(O)CCN(C(=O)c2ccc(NS(=O)(=O)c3cccc4csnc34)cc2)CC1` [Compound 376], the AC50 lay within 1010 to 10000 nM on PKR R510Q, 101 to 1000 nM on PKR R532W and 101 to 1000 nM on PKR WT.
Consider `O=C(c1ccc(NS(=O)(=O)c2ccc(F)c3scnc23)cc1)N1CCC(O)(c2ccccc2Cl)CC1` [Compound 378, N-(4-(4-(2-chlorophenyl)-4-hydroxypiperidine-1-carbonyl)phenyl)-7-fluorobenzo[d]thiazole-4-sulfonamide], for which the AC50 at PKR R510Q lay within 1010 to 10000 nM; at PKR R532W, 101 to 1000 nM; on PKR WT, 101 to 1000 nM.
Regarding `O=C(c1ccc(NS(=O)(=O)c2cccc3ocnc23)cc1)N1CCC(O)(c2ccccc2Cl)CC1` [Compound 381, N-(4-(4-(2-chlorophenyl)-4-hydroxypiperidine-1-carbonyl)phenyl)benzo[d]oxazole-4-sulfonamide], the figures for the AC50 at PKR R510Q, at PKR R532W and at PKR WT were 101 to 1000 nM, 101 to 1000 nM and below 100 nM, respectively.
Take `Cc1nc2c(S(=O)(=O)Nc3ccc(C(=O)N4CCC(O)(CC(C)C)CC4)cc3)cccc2o1` [Compound 384, N-(4-(4-hydroxy-4-isobutylpiperidine-1-carbonyl)phenyl)-2-methylbenzo[d]oxazole-4-sulfonamide]: the AC50 on PKR R510Q, on PKR R532W and at PKR WT was 101 to 1000 nM each time.
As for `O=C(c1ccc(NS(=O)(=O)c2cccc3scnc23)cc1)N1CCC(O)(COCC(F)(F)F)CC1` [Compound 386, N-(4-(4-hydroxy-4-((2,2,2-trifluoroethoxy)methyl)piperidine-1-carbonyl)phenyl)benzo[d]thiazole-4-sulfonamide], the AC50 on PKR R510Q, on PKR R532W and on PKR WT was 101 to 1000 nM in each case.
Turning to `CNc1nc2c(S(=O)(=O)Nc3ccc(C(=O)N4CCC(O)(c5ccccc5Cl)CC4)cc3)cccc2s1` [Compound 409], the AC50 at PKR R510Q, at PKR R532W and on PKR WT was below 100 nM throughout.
Regarding `O=C(c1ccc(NS(=O)(=O)c2cccc3scnc23)cc1)N1CCC(O)(c2cn[nH]c2)CC1` [Compound 410, N-[4-[4-hydroxy-4-(1H-pyrazol-4-yl)piperidine-1-carbonyl]phenyl]benzothiazole-4-sulfonamide], the AC50 was above 10000 nM on PKR R510Q, 101 to 1000 nM on PKR R532W and 101 to 1000 nM on PKR WT.
On to `CC(F)(F)CC1(O)CCN(C(=O)c2ccc(NS(=O)(=O)c3cccc4scnc34)cc2)CC1` [Compound 413], for which the AC50 at PKR R510Q, at PKR R532W and on PKR WT was 101 to 1000 nM in each case.
As for `O=C(c1ccc(NS(=O)(=O)c2cccc3snnc23)cc1)N1CCC(O)(c2ccccc2Cl)CC1` [Compound 417], the AC50 was above 10000 nM at PKR R510Q, 1010 to 10000 nM on PKR R532W and 1010 to 10000 nM at PKR WT.
Take `Nc1nc2cc(S(=O)(=O)Nc3ccc(C(=O)N4CCC(O)(c5ccccc5Cl)CC4)cc3)c(F)cc2s1` [Compound 418]: the AC50 was above 10000 nM at PKR R510Q, above 10000 nM on PKR R532W and 1010 to 10000 nM at PKR WT.
On to `CC(C)CC1(O)CCN(C(=O)c2ccc(NS(=O)(=O)c3cccc4[nH]c(=O)cnc34)cc2)CC1` [Compound 438], for which the AC50 on PKR R510Q, at PKR R532W and at PKR WT was 1010 to 10000 nM each time.

As usually defined, the AC50 is the concentration at which the activity in the assay is half-maximal. A lower AC50 goes with greater potency.
